Measured values from patent publication US4937390A, “Compound useful for the production of 3-deoxy-3-fluoro-myo-inositol” (University of Pittsburgh, priority 1989, dated 1990).

How the values were obtained:
PC12 cells [1] = assay: Effect on cell size (protein per cell, Lowry) in PC12 cells; type: cell-based, rat; conditions: for effect on cell cycle / cell division: chronically treated PC12 cells
Text: As cells grow in culture, the size of an individual cell varies in a fairly predictable way. The size of a cell can be expressed as the amount of protein present per cell. […] Immediately after mitosis, the cell size drops considerably, frequently to levels approximately half of the pre-mitotic level.
By investigating the size of a cell, it is possible to determine at which point within the cell cycle inhibitors of cell replication are exerting their effects. Accordingly, we investigated the effect of the 1- and 3-fluoro-myo-inositol analogs on the size of cells chronically treated with such analogs.
Cells were grown and treated with 1- and 3-fluoro-myo-inositol analogs as described in Example XIII. On the days indicated, cells were gently harvested without disruption, and the number of cells counted in triplicate in a cell counting chamber. Following determination of the number of cells per sample, the remainder of the cells were pelleted in a microcentrifuge as described hereinabove, and the protein in the sample was determined by the method of Lowry. Thus, it was possible to derive from these two data sets the amount of protein per cell, which is expressed as nanograms of protein per cell, as indicated in Table 3: […]

myo-inositol transporter = target: T1, myo-inositol transporter (Rattus norvegicus, UniProt Q80WA5); assay: [3H]myo-inositol uptake by the myo-inositol transporter in PC12 cells; type: cell-based; conditions: for block of [3H]myo-inositol uptake / Maximal Transport Rate Vmax / Ki: PC12 cells; for Maximal Transport Rate Vmax: in the presence of 1 mM analog; for Ki: uptake studies in the presence of a fixed concentration (1 mM) of analog, read-out: Affinity Constant K (Ki of the analog)
T1 construct: PC12 cells were gently detached and maintained in a suspension culture; endogenous in cells; host or cells: PC12 cells
T1 sequence (Q80WA5 1-718): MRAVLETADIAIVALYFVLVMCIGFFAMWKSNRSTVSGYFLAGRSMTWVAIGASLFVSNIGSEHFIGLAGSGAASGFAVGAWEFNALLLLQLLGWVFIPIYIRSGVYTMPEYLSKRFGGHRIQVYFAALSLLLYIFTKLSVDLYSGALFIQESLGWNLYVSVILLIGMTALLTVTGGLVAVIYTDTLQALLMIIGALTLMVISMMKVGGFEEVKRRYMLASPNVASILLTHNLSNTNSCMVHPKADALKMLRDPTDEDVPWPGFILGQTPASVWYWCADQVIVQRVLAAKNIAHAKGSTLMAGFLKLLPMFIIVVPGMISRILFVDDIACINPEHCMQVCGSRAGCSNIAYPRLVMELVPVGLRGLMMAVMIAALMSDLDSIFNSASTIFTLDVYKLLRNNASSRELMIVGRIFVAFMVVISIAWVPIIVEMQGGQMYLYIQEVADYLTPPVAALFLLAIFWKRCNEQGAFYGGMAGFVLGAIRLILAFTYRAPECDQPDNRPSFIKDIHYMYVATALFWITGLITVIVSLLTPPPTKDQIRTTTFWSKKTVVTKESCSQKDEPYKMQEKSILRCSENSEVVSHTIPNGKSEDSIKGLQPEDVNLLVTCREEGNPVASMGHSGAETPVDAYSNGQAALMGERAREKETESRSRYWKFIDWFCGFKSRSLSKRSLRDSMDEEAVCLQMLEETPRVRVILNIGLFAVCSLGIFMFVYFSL
Protocol: To determine if the effect of the fluoro-myo-inositol analogs might be mediated by the blockade of the myo-inositol transporter, which is responsible for uptake and accumulation of myo-inositol into the cell, the ability of these two compounds to block [^3 H]myo-inositol transport was studied directly.
The uptake of [^3 H]myo-inositol by the myo-inositol transporter was determined as follows:
PC12 cells were gently detached and maintained in a suspension culture in RPMI medium (both myo-inositol and serum free) at 37° C. ]^3 H]myo-inositol was added to this culture at a concentration of 1μCi/ml. Aliquots of this suspension were removed at the indicated time, diluted in 10 volumes of ice-cold PBS containing 10 mM unlabelled myo-inositol to stop the uptake process, centrifuged at 4° C. for 20 minutes at 50 xg. The cell pellet, which contained the transported [^3 H]myo-inositol, was dissolved in dilute NaOH and the radioactivity quantified by liquid scintillation counting.
The […] and Vmax of myoinositol were determined from LineweaverBurke plots
of the uptake of [^3 H]myoinositol (25 nM) in the presence of
increasing concentrations of unlabeled myoinositol in PC12 cells. The Ki
of the two fluoromyo-inositol analogs was determined by conducting the
uptake studies in the presence of a fixed concentration (1 mM) of each

PC12 cells [2] = assay: Uptake and incorporation of [3H]myo-inositol into PC12 cells following treatment with inositol analogs; type: cell-based, rat; conditions: for Bound [3H]myo-inositol (incorporated into membranes) / Free [3H]myo-inositol (cytoplasm): one hour [3H]myo-inositol
Protocol: Since myo-inositol must be incorporated into the cellular plasma membranes in order for it to serve its role as a second messenger, we therefore verified the ability of the 1- and 3-fluoro-myo-inositol analogs to perturb the incorporation of myo-inositol into cellular plasma membranes by the enzyme […] CDP-diacylglycerol-inositol phosphatidylytransferase (phosphatidylinositolsynthesis).
These tests were conducted by treating cells for either 1, 3, 5, or 7 days with the myo-inositol analogs, followed by a brief exposure to radiolabeled myo-inositol ([^3 H]myo-inositol). The extent of incorporation of tritiated myo-inositol would, therefore, reflect the extent to which phosphatidylinositol and its phosphorylated analogs are deficient in the cellular plasma membranes.
Cells were grown as described hereinabove. Twenty-four hours after plating, the medium was changed and cells were exposed to either inositol free medium (Control 2) or medium containing either the 1- or the 3-fluoro-myo-inositol analog. At four different time points --1, 3, 5, and 7 days--cells were tested for their ability to incorporate radiolabeled [^3 H]myo-inositol. This test was conducted by removing the medium and replacing it with RPMI medium (both myo-inositol and serum free) containing only [^3 H]myo-inositol. The cells were exposed to this medium for a period of one hour, following which they were washed three times with phosphate-buffered saline containing excess unlabeled myo-inositol (10 mM). Cells were lysed by treatment with trichloroacetic acid (TCA) and sonicated to insure complete disruption. The cellular homogenate was then collected and spun in a microfuge tube at 12,000 r.p.m. for 15 min. Samples from both the pellet and supernatant were then obtained and the levels of radioactivity in each were determined. Radioactivity in the supernatant corresponded to the amount of free [^3 H]myo-inositol in the cytoplasm of the cell, whereas the radioactivity present in the TCA-precipated pellet represented [^3 H]myo-inositol incorporated into the cellular plasma membranes.
Cells were treated for the indicated time periods with the inositol
analogs, and then exposed for one hour to [^3 H]myoinositol. Numbers
represent DPM/10^6 cells.

SMILES	effect on cell cycle / cell division (PC12 cells [1])	Cell size (protein per cell) (PC12 cells [1]; treatment duration 1 day) [nanograms protein/cell]	Cell size (protein per cell) (PC12 cells [1]; treatment duration 3 days) [nanograms protein/cell]	Cell size (protein per cell) (PC12 cells [1]; treatment duration 5 days) [nanograms protein/cell]	Cell size (protein per cell) (PC12 cells [1]; treatment duration 7 days) [nanograms protein/cell]	block of [3H]myo-inositol uptake (myo-inositol transporter)	Maximal Transport Rate Vmax (myo-inositol transporter) [nmol/mg/h]	Ki (myo-inositol transporter) [µM]	Bound [3H]myo-inositol (incorporated into membranes) (PC12 cells [2]; Day 1 of treatment) [DPM/10^6 cells]	Free [3H]myo-inositol (cytoplasm) (PC12 cells [2]; Day 1 of treatment) [DPM/10^6 cells]	Bound [3H]myo-inositol (incorporated into membranes) (PC12 cells [2]; Day 3 of treatment) [DPM/10^6 cells]	Free [3H]myo-inositol (cytoplasm) (PC12 cells [2]; Day 3 of treatment) [DPM/10^6 cells]	Bound [3H]myo-inositol (incorporated into membranes) (PC12 cells [2]; Day 5 of treatment) [DPM/10^6 cells]	Free [3H]myo-inositol (cytoplasm) (PC12 cells [2]; Day 5 of treatment) [DPM/10^6 cells]	Bound [3H]myo-inositol (incorporated into membranes) (PC12 cells [2]; Day 7 of treatment) [DPM/10^6 cells]	Free [3H]myo-inositol (cytoplasm) (PC12 cells [2]; Day 7 of treatment) [DPM/10^6 cells]	other results
O[C@@H]1[C@@H](O)[C@@H](O)[C@@H](F)[C@H](O)[C@H]1O [1-deoxy-1-fluoro-myo-inositol]	arrested in a pre-mitotic state (termed late G2)	0.082 ± 0.01	0.135 ± 0.01	0.160 ± 0.01	0.168 ± 0.02	did block	2.27	1430	392 ± 16	8365 ± 787	4614 ± 141	4751 ± 291	2143 ± 314	4295 ± 627	3726 ± 588	7569 ± 757	cell size relative to controls (PC12 cells [1]; cells arrested in pre-mitotic state): approximately 2 fold; affinity for the myo-inositol transporter, fold lower than the 3-fluoro-myo-inositol analog (myo-inositol transporter): 5.7 fold
O[C@@H]1[C@@H](O)[C@H](O)[C@@H](F)[C@@H](O)[C@H]1O [3-deoxy-3-fluoro-myo-inositol]	continued to increase steadily in size without undergoing cell division	0.086 ± 0.01	0.259 ± 0.01	0.320 ± 0.01	0.343 ± 0.03	did block	2.27	250	354 ± 10	3326 ± 253	761 ± 42	2929 ± 189	414 ± 52	2900 ± 383	676 ± 113	4095 ± 161	cell size relative to control cells (PC12 cells [1]; by day seven): about 3.5 times; potency in blocking myo-inositol transport relative to the 1-fluoro myo-inositol analog (myo-inositol transporter): 5.7 times; level of radioactivity-labeled myo-inositol incorporated into the cellular plasma membranes (PC12 cells [2]): quite low
